Source: patent US20260317356A1, “SMALL MOLECULE MODULATORS OF OGG1” (AZKARRA THERAPEUTICS, INC., priority 2023, published 2026)

target: hOGG1 (Homo sapiens, UniProt O15527); assay: Biochemical fluorescence assay to measure enzymatic activity of hOGG1 (OGG1/APEX IC50); parameters: Protein His-hOGG1 (12-323) was prepared; His (N); host or cells: E. coli; conditions: 1 nM OGG1+2 nM APEX+6 nM dsDNA (8-oxo-dG substrate); pH 7.5; RT 40 min; read-out: OGG1/APEX IC50
Procedure: Biological Example 1: Biochemical Assay to Measure Enzymatic Activity of hOGG1 (OGG1/APEX IC50)
The reported fluorescence-based assay (Donley et al ACS Chem Biol 2015; 10 (10), 2334-2343) was modified to include hAPE1/APEX1 protein. The oligonucleotide substrate with 8-oxo-dG lesion at X was prepared (LGC Biosearch, Petaluma, CA):
Protein His-hOGG1 (12-323) was prepared by Chempartner Corporation via E. coliexpression and purification by Ni-NTA and S200 column to afford 95% purity by SDS-PAGE and SEC-HPLC analysis and hAPE1/APEX1 was purchased (SinoBiological). The assay was run in 384-well plates following the general procedure: (1) compound dilution; (2) addition of hOGG1/APEX1 to compound wells; (3) addition of DNA substrate to compound wells; (4) read Ex520/Em600 (TAMRA) fluorescence signal after 40 minutes; (5) calculate % inhibition/compound concentration; (6) calculate dose-response curve and IC50 value.
• (1) 20 mM of compound solution was prepared in DMSO; • (2) Compounds were diluted to 10 mM in DMSO in ECHO Source plate (Labcyte PP-0200), by mixing […] DMSO; • (3) 4× dilution of compounds, for 10 points, by mixing […] DMSO; and • (4) Dispensed 150 nL compounds to assay plate (Corning 3573) in column 3-22. Dispensed 150 nL DMSO to Min and Max control wells in column 1-2 and column 23-24.
• (1) Assay buffer was prepared (20 mM Tris pH 7.5, 100 mM KCl, 0.1% BSA, 0.01% Tween). • (2) […] buffer was added to Min control wells (Column 1-2). • (3) Enzyme was diluted to 2× with buffer (2 nM OGG1+4 nM APEX1). Dispensed […] (except Min control wells). Shake at 500 rpm at RT for 20 min. • (4) DNA substrate diluted to 2× with buffer (12 nM). Dispensed […]. Final concentration: 1 nM OGG1+2 nM APEX+6 nM dsDNA. Shake at RT for 40 min. • (5) Ex520/Em600 (TAMRA) was read.
• (1) Calculated respective mean of Max and Min control wells. • (2) Converted data to percentage inhibition.
Inhibition (%)=(Max mean−value)/(Max mean−Min mean)×100% • (3) Calculated sigmoidal curve (3-parameter) and IC50 (using GraphPad Prism software).

hOGG1, sequence (O15527 12-323): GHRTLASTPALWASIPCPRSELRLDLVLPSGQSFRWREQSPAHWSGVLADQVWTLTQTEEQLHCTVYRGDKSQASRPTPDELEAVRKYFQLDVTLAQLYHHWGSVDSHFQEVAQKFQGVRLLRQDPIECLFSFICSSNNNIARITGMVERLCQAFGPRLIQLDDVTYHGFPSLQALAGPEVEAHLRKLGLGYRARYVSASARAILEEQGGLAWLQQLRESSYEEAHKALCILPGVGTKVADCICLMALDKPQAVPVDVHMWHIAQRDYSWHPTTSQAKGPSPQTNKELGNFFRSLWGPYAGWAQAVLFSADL

SMILES | IC50
CCc1ccc(NC(=O)[C@H]2CC[C@@H](N3Cc4c(C)cccc4C3=O)CC2)cc1C [Example 127, (1s,4s)-N-(4-Ethyl-3-methylphenyl)-4-(4-methyl-1-oxoisoindolin-2-yl)cyclohexane-1-carboxamide] | 1000 to 10000 nM
COc1cc(NC(=O)[C@H]2CC[C@@H](N3Cc4c(C)cc(C(=O)O)cc4C3=O)CC2)ccc1C [Example 211, 2-((1s,4s)-4-(3-Methoxy-4-methylphenylcarbamoyl)cyclohexyl)-7-methyl-3-oxoisoindoline-5-carboxylic Acid] | 100 to 1000 nM
CCc1ccc(NC(=O)[C@H]2CC[C@@H](N3Cc4c(C)cccc4NC3=O)CC2)cc1OC [Example 95, (1s,4s)-N-(4-ethyl-3-methoxyphenyl)-4-(5-methyl-2-oxo-1,2-dihydroquinazolin-3(4H)-yl)cyclohexanecarboxamide] | 100 to 1000 nM
Cc1cccc2c1CN([C@H]1CC[C@@H](C(=O)Nc3ccc4cnn(C)c4c3)CC1)C2=O [Example 215, (1s,4s)-4-(4-Methyl-1-oxoisoindolin-2-yl)-N-(1-methyl-1H-indazol-6-yl)cyclohexanecarboxamide] | 1000 to 10000 nM
Cc1cccc2c1CN([C@H]1CC[C@@H](C(=O)Nc3ccc4cc[nH]c4c3)CC1)C2=O [Example 276, (1s,4s)-N-(1H-indol-6-yl)-4-(4-methyl-1-oxoisoindolin-2-yl)cyclohexanecarboxamide] | 1000 to 10000 nM
COc1ccc(NC(=O)[C@H]2CC[C@@H](N3Cc4c(C)cccc4NC3=O)CC2)cc1Cl [Example 88, (1s,4s)-N-(3-chloro-4-methoxyphenyl)-4-(5-methyl-2-oxo-1,2-dihydroquinazolin-3(4H)-yl)cyclohexanecarboxamide] | < 100 nM
Cc1ccc(NC(=O)[C@H]2CC[C@@H](N3Cc4c(C)cccc4C3=O)CC2)cc1C#N [Example 218, (1s,4s)-N-(3-Cyano-4-methylphenyl)-4-(4-methyl-1-oxoisoindolin-2-yl)cyclohexanecarboxamide] | 1000 to 10000 nM
C=Cc1ccc(C)c2c1NC(=O)N([C@H]1CC[C@@H](C(=O)Nc3ccc(C)c(OC)c3)CC1)C2 [Example 55, (1s,4s)-N-(3-Methoxy-4-methylphenyl)-4-(5-methyl-2-oxo-8-vinyl-1,2-dihydroquinazolin-3(4H)-yl)cyclohexanecarboxamide] | < 100 nM
Cc1cccc2c1CN([C@H]1CC[C@@H](C(=O)Nc3cc4ccccc4[nH]3)CC1)C2=O [Example 273, (1s,4s)-N-(1H-indol-2-yl)-4-(4-methyl-1-oxoisoindolin-2-yl)cyclohexanecarboxamide] | 100 to 1000 nM
COc1cc(NC(=O)[C@H]2CC[C@@H](N3Cc4c(ccc(O)c4Br)C3=O)CC2)ccc1C [Example 189, (1s,4s)-4-(4-Bromo-5-hydroxy-1-oxoisoindolin-2-yl)-N-(3-methoxy-4-methylphenyl)cyclohexanecarboxamide] | 100 to 1000 nM
COc1cc(NC(=O)[C@H]2CC[C@@H](N3Cc4c(CN)ccc(Cl)c4C3=O)CC2)ccc1C [Example 133, (1s,4s)-4-(4-(Aminomethyl)-7-chloro-1-oxoisoindolin-2-yl)-N-(3-methoxy-4-methylphenyl)cyclohexane-1-carboxamide] | > 10000 nM
COc1cc(NC(=O)[C@@H]2[C@@H]3C[C@@H](N4Cc5c(Br)cccc5C4=O)C[C@@H]32)ccc1C (single isomer, unassigned) [Example 269] | 1000 to 10000 nM
C=Cc1ccc2c(c1C)CN([C@H]1CC[C@@H](C(=O)Nc3ccc(C)c(OC)c3)CC1)C(=O)N2 [Example 53, (1s,4s)-N-(3-methoxy-4-methylphenyl)-4-(5-methyl-2-oxo-6-vinyl-1,2-dihydroquinazolin-3(4H)-yl)cyclohexanecarboxamide] | 1000 to 10000 nM
COc1ccc(NC(=O)[C@]2(C)CC[C@@H](N3Cc4c(C)cccc4NC3=O)CC2)cc1C#N (single isomer, unassigned) [Example 108, (1r,4r)-N-(3-cyano-4-methoxyphenyl)-1-methyl-4-(5-methyl-2-oxo-1,2-dihydroquinazolin-3(4H)-yl)cyclohexanecarboxamide] | > 10000 nM
COc1cc(NC(=O)[C@H]2CC[C@@H](N3Cc4c(C)cnc(CN)c4NC3=O)CC2)ccc1C [Example 20, (1s,4s)-4-(8-(Aminomethyl)-5-methyl-2-oxo-1,2-dihydropyrido[3,4-d]pyrimidin-3(4H)-yl)-N-(3-methoxy-4-methylphenyl)cyclohexanecarboxamide] | < 100 nM

Second part, the compound after the results:

IC50 | SMILES
> 10000 nM | COc1cc(NC(=O)[C@H]2CC[C@H](n3[nH]c4c(Br)cccc4c3=O)CC2)ccc1C (single isomer, unassigned) [Example 159, (1r,4r)-4-(7-Bromo-3-oxo-1H-indazol-2(3H)-yl)-N-(3-methoxy-4-methylphenyl)cyclohexanecarboxamide]
> 10000 nM | Cc1cccc2c1CN([C@H]1CC[C@@H](C(=O)Nc3ccc(=O)[nH]c3)CC1)C2=O [Example 251, (1s,4s)-4-(4-Methyl-1-oxoisoindolin-2-yl)-N-(6-oxo-1,6-dihydropyridin-3-yl)cyclohexanecarboxamide]
> 10000 nM | COc1cc(NC(=O)[C@H]2CC[C@@H](n3oc4c(Br)cccc4c3=O)CC2)ccc1C [Example 184, (1s,4s)-4-(7-Bromo-3-oxobenzo[d]isoxazol-2(3H)-yl)-N-(3-methoxy-4-methylphenyl)cyclohexanecarboxamide]
1000 to 10000 nM | Cc1cc(NCCN(C)C)cc2c1CN([C@H]1CC[C@@H](C(=O)Nc3nc(CCO)cs3)CC1)C2=O [Example 131, (1s,4s)-4-(6-((2-(Dimethylamino)ethyl)amino)-4-methyl-1-oxoisoindolin-2-yl)-N-(4-(2-hydroxyethyl)thiazol-2-yl)cyclohexane-1-carboxamide]
1000 to 10000 nM | COc1cc(NC(=O)[C@H]2CC[C@H](N3Cc4c(C)cc(C5COC5)cc4NC3=O)CC2)ccc1C [Example 110, (1r,4r)-N-(3-methoxy-4-methylphenyl)-4-(5-methyl-7-(oxetan-3-yl)-2-oxo-1,2-dihydroquinazolin-3(4H)-yl)cyclohexanecarboxamide]
< 100 nM | COc1cc(NC(=O)[C@H]2CC[C@@H](N3Cc4c(Br)cncc4NC3=O)CC2)ccc1C [Example 91, (1s,4s)-4-(5-bromo-2-oxo-1,2-dihydropyrido[3,4-d]pyrimidin-3(4H)-yl)-N-(3-methoxy-4-methylphenyl)cyclohexanecarboxamide]
> 10000 nM | Cc1cccc2c1CN([C@H]1CC[C@@H](C(=O)Nc3cccc(=O)[nH]3)CC1)C2=O [Example 248, (1s,4s)-4-(4-Methyl-1-oxoisoindolin-2-yl)-N-(6-oxo-1,6-dihydropyridin-2-yl)cyclohexanecarboxamide]
< 100 nM | COc1cc(NC(=O)[C@H]2CC[C@@H](N3Cc4c(C)cc(CN5CC[C@H](O)C5)cc4NC3=O)CC2)ccc1C (stereo in doubt) [Example 98, (1R,4s)-4-(7-(((S)-3-hydroxypyrrolidin-1-yl)methyl)-5-methyl-2-oxo-1,2-dihydroquinazolin-3(4H)-yl)-N-(3-methoxy-4-methylphenyl)cyclohexanecarboxamide]
< 100 nM | COc1cc(NC(=O)[C@H]2CC[C@@H](N3Cc4c(C)cnc(Cl)c4NC3=O)CC2)ccc1C [Example 32, (1s,4s)-4-(8-Chloro-5-methyl-2-oxo-1,2-dihydropyrido[3,4-d]pyrimidin-3(4H)-yl)-N-(3-methoxy-4-methylphenyl)cyclohexanecarboxamide]
1000 to 10000 nM | COc1cc(NC(=O)[C@H]2CC[C@@H](N3Cc4c(ccc(N)c4C)NC3=O)CC2)ccc1C [Example 46, (1s,4s)-4-(6-Amino-5-methyl-2-oxo-1,2-dihydroquinazolin-3(4H)-yl)-N-(3-methoxy-4-methylphenyl)cyclohexanecarboxamide]
> 10000 nM | COc1cc(NC(=O)[C@H]2CC[C@@H](N3Cc4c(cccc4C4CCC4)C3=O)CC2)ccc1C [Example 152, (1s,4s)-4-(4-Cyclobutyl-1-oxoisoindolin-2-yl)-N-(3-methoxy-4-methylphenyl)cyclohexanecarboxamide]
100 to 1000 nM | COc1cc(NC(=O)[C@H]2CC[C@@H](N3Cc4c(Br)ccc(Cl)c4C3=O)CC2)ccc1C [Example 142, (1s,4s)-4-(4-Bromo-7-chloro-1-oxoisoindolin-2-yl)-N-(3-methoxy-4-methylphenyl)cyclohexanecarboxamide]
